One may read the Ki as the equilibrium dissociation constant of an inhibitor or competing ligand from its target.

The record followed here is patent US20210238225A1, “PEPTIDOMIMETIC INHIBITORS OF THE PEPTIDYL-PROLYL CIS/TRANS ISOMERASE (PIN1)” (DANA-FARBER CANCER INSTITUTE, INC., priority 2018, published 2021).

Non-standard residues stand in square brackets, D forms with d. Residues, ends and D or L forms follow the SMILES beside them. *: point of attachment. Ala(9-anthryl) = N[C@@H](Cc1c2ccccc2cc2ccccc12)C(=O)O; Bip = N[C@@H](Cc1ccc(-c2ccccc2)cc1)C(=O)O; Dip = N[C@H](C(=O)O)C(c1ccccc1)c1ccccc1; Morpholine(3S-CO) = O=C(O)[C@@H]1COCCN1; 2Nal = N[C@@H](Cc1ccc2ccccc2c1)C(=O)O; Bta = N[C@@H](Cc1csc2ccccc12)C(=O)O; NMeY = CN[C@@H](Cc1ccc(O)cc1)C(=O)O; NMeE = CN[C@@H](CCC(=O)O)C(=O)O; pS = N[C@@H](COP(=O)(O)O)C(=O)O; Cit = NC(=O)NCCC[C@H](N)C(=O)O; aThr = C[C@H](O)[C@H](N)C(=O)O; Pip = O=C(O)[C@@H]1CCCCN1; Acryloyl = C=CC(=O)*; ClAc = O=C(CCl)*

The assay addresses Pin1 (GST-Pin1) (Homo sapiens, UniProt Q13526). Nature of the assay: Fluorescence polarization (FP) assay, binding to Pin1. The conditions noted are these: competition with fluorescein-labeled peptide probe; 12 hours pre-incubation at 4° C.; Kenakin Ki equation; read-out: Ki, μM (FP Assay).

Sequence of Pin1 (GST-Pin1) (Q13526 whole entry): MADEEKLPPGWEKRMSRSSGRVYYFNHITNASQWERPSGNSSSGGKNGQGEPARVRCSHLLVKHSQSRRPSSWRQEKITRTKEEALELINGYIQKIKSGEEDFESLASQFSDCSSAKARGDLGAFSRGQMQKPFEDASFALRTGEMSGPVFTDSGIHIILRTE

As to `C[C@H](O)[C@H](NC(=O)CCl)C(=O)N1CCCC[C@H]1C(=O)N[C@@H](Cc1c[nH]c2ccccc12)C(=O)N[C@@H](CCCNC(N)=O)C(N)=O` [Compound 2-20, (S)—N—((S)-1-(((S)-1-Amino-1-oxo-5-ureidopentan-2-yl)amino)-3-(1H-indol-3-yl)-1-oxopropan-2-yl)-1-((2-chloroacetyl)-L-allothreonyl)piperidine-2-carboxamide] (ClAc-[aThr][Pip]W[Cit]-NH2), the Ki came out at 0.122 µM. On to `NC(=O)NCCC[C@H](NC(=O)[C@H](Cc1c[nH]c2ccccc12)NC(=O)[C@@H]1CCCCN1C(=O)[C@H](COP(=O)(O)O)NC(=O)CCl)C(N)=O` [Compound 2-21, (S)-3-((S)-2-(((S)-1-(((S)-1-Amino-1-oxo-5-ureidopentan-2-yl)amino)-3-(1H-indol-3-yl)-1-oxopropan-2-yl)carbamoyl)piperidin-1-yl)-2-(2-chloroacetamido)-3-oxopropyl dihydrogen phosphate] (ClAc-[pS][Pip]W[Cit]-NH2), for which the Ki stood at 0.004 µM.

Consider `COC(=O)CC[C@H](NC(=O)CCl)C(=O)N1CCCC[C@H]1C(=O)N[C@@H](Cc1c[nH]c2ccccc12)C(=O)N[C@@H](Cc1ccccc1)C(N)=O` [Compound 2-23, Methyl (S)-5-((S)-2-(((S)-1-(((S)-1-Amino-1-oxo-3-phenylpropan-2-yl)amino)-3-(1H-indol-3-yl)-1-oxopropan-2-yl)carbamoyl)piperidin-1-yl)-4-(2-chloroacetamido)-5-oxopentanoate] (ClAc-E(OMe)[Pip]WF-NH2), for which the Ki amounted to 0.231 µM. For `COC(=O)CC[C@H](NC(=O)CCl)C(=O)N1CCCC[C@H]1C(=O)N[C@@H](Cc1c[nH]c2ccccc12)C(=O)N[C@@H](Cc1ccc2ccccc2c1)C(N)=O` [Compound 2-24, Methyl (S)-5-((S)-2-(((S)-1-(((S)-1-Amino-3-(naphthalen-2-yl)-1-oxopropan-2-yl)amino)-3-(1H-indol-3-yl)-1-oxopropan-2-yl)carbamoyl)piperidin-1-yl)-4-(2-chloroacetamido)-5-oxopentanoate] (ClAc-E(OMe)[Pip]W[2Nal]-NH2) the value was 0.525 µM; for `C[C@H](O)[C@H](NC(=O)CCl)C(=O)N1CCCC[C@H]1C(=O)N[C@@H](Cc1c[nH]c2ccccc12)C(=O)N[C@@H](Cc1ccc(O)cc1)C(N)=O` [Compound 2-26, (S)—N—((S)-1-(((S)-1-Amino-3-(4-hydroxyphenyl)-1-oxopropan-2-yl)amino)-3-(1H-indol-3-yl)-1-oxopropan-2-yl)-1-((2-chloroacetyl)-L-allothreonyl)piperidine-2-carboxamide] (ClAc-[aThr][Pip]WY-NH2), 0.299 µM.

Take `COC(=O)CC[C@H](NC(=O)CCl)C(=O)N1CCCC[C@H]1C(=O)N[C@@H](Cc1c[nH]c2ccccc12)C(=O)N(C)[C@@H](Cc1ccc(O)cc1)C(N)=O` [Compound 2-28, Methyl (S)-5-((S)-2-(((S)-1-(((S)-1-amino-3-(4-hydroxyphenyl)-1-oxopropan-2-yl)(methyl)-amino)-3-(1H-indol-3-yl)-1-oxopropan-2-yl)carbamoyl)piperidin-1-yl)-4-(2-chloroacetamido)-5-oxopentanoate] (ClAc-E(OMe)[Pip]W[NMeY]-NH2): the Ki is more than 10 µM. With `CN(C(=O)CCl)[C@@H](CCC(=O)O)C(=O)N1CCCC[C@H]1C(=O)N[C@@H](Cc1c[nH]c2ccccc12)C(=O)N[C@@H](Cc1ccc(O)cc1)C(N)=O` [Compound 2-31, (S)-5-((S)-2-(((S)-1-(((S)-1-Amino-3-(4-hydroxyphenyl)-1-oxopropan-2-yl)amino)-3-(1H-indol-3-yl)-1-oxopropan-2-yl)carbamoyl)piperidin-1-yl)-4-(2-chloro-N-methylacetamido)-5-oxopentanoic acid] (ClAc-[NMeE][Pip]WY-NH2), the inhibition constant (Ki) was determined as 0.07 µM. For `CC(=O)N[C@@H](CCC(=O)O)C(=O)N1CCCC[C@H]1C(=O)N[C@@H](Cc1c[nH]c2ccccc12)C(=O)N[C@@H](CCCNC(N)=O)C(N)=O` [Compound 2-33, (S)-4-Acetamido-5-((S)-2-(((S)-1-(((S)-1-amino-1-oxo-5-ureidopentan-2-yl)amino)-3-(1H-indol-3-yl)-1-oxopropan-2-yl)carbamoyl)piperidin-1-yl)-5-oxopentanoic acid] (Ac-E[Pip]W[Cit]-NH2) the value was more than 10 µM; for `C=CC(=O)N[C@H](CC(=O)O)C(=O)N1CCCC[C@H]1C(=O)N[C@@H](Cc1ccc2ccccc2c1)C(=O)N[C@@H](CCC(N)=O)C(N)=O` [Compound 2-34, (R)-3-Acrylamido-4-((S)-2-(((S)-1-(((S)-1,5-diamino-1,5-dioxopentan-2-yl)amino)-3-(naphthalen-2-yl)-1-oxopropan-2-yl)carbamoyl)piperidin-1-yl)-4-oxobutanoic acid] (Acryloyl-[dD][Pip][2Nal]Q-NH2), more than 10 µM. Regarding `C=CC(=O)N[C@@H](CC(=O)O)C(=O)N1CCCC[C@H]1C(=O)N[C@@H](Cc1ccc2ccccc2c1)C(=O)N[C@@H](CCC(N)=O)C(N)=O` [Compound 2-35, (S)-3-Acrylamido-4-((S)-2-(((S)-1-(((S)-1,5-diamino-1,5-dioxopentan-2-yl)amino)-3-(naphthalen-2-yl)-1-oxopropan-2-yl)carbamoyl)piperidin-1-yl)-4-oxobutanoic acid] (Acryloyl-D[Pip][2Nal]Q-NH2), the Ki was more than 10 µM. Next, `C=CC(=O)N[C@@H](CCC(=O)O)C(=O)N1CCCC[C@H]1C(=O)N[C@@H](Cc1ccc2ccccc2c1)C(=O)N[C@@H](CCC(N)=O)C(N)=O` [Compound 2b-1, (S)-4-Acrylamido-5-((S)-2-(((S)-1-(((S)-1,5-diamino-1,5-dioxopentan-2-yl)amino)-3-(naphthalen-2-yl)-1-oxopropan-2-yl)carbamoyl)piperidin-1-yl)-5-oxopentanoic acid] (Acryloyl-E[Pip][2Nal]Q-NH2): more than 10 µM. For `C=CC(=O)N[C@H](CCC(=O)O)C(=O)N1CCCC[C@H]1C(=O)N[C@@H](Cc1ccc2ccccc2c1)C(=O)N[C@@H](CCC(N)=O)C(N)=O` [Compound 2b-2, (R)-4-Acrylamido-5-((S)-2-(((S)-1-(((S)-1,5-diamino-1,5-dioxopentan-2-yl)amino)-3-(naphthalen-2-yl)-1-oxopropan-2-yl)carbamoyl)piperidin-1-yl)-5-oxopentanoic acid] (Acryloyl-[dE][Pip][2Nal]Q-NH2) the value was more than 10 µM; for `NC(=O)CC[C@H](NC(=O)[C@H](Cc1ccc2ccccc2c1)NC(=O)[C@@H]1CCCCN1C(=O)[C@@H](CCC(=O)O)NC(=O)CCl)C(N)=O` [Compound 2b-4, (R)-4-(2-Chloroacetamido)-5-((S)-2-(((S)-1-(((S)-1,5-diamino-1,5-dioxopentan-2-yl)amino)-3-(naphthalen-2-yl)-1-oxopropan-2-yl)carbamoyl)piperidin-1-yl)-5-oxopentanoic acid] (ClAc-[dE][Pip][2Nal]Q-NH2), more than 10 µM. For `NC(=O)CC[C@H](NC(=O)[C@H](Cc1ccc2ccccc2c1)NC(=O)[C@@H]1COCCN1C(=O)[C@H](CCC(=O)O)NC(=O)CCl)C(N)=O` [Compound 2b-5, (S)-4-(2-Chloroacetamido)-5-((S)-3-(((S)-1-(((S)-1,5-diamino-1,5-dioxopentan-2-yl)amino)-3-(naphthalen-2-yl)-1-oxopropan-2-yl)carbamoyl)morpholino)-5-oxopentanoic acid] (ClAc-E[Morpholine(3S-CO)][2Nal]Q-NH2), the Ki was more than 10 µM. For `NC(=O)[C@H](Cc1c[nH]cn1)NC(=O)[C@H](Cc1ccc2ccccc2c1)NC(=O)[C@@H]1CCCCN1C(=O)[C@H](CCC(=O)O)NC(=O)CCl` [Compound 2b-7, (S)-5-((S)-2-(((S)-1-(((S)-1-Amino-3-(1H-imidazol-4-yl)-1-oxopropan-2-yl)amino)-3-(naphthalen-2-yl)-1-oxopropan-2-yl)carbamoyl)piperidin-1-yl)-4-(2-chloroacetamido)-5-oxopentanoic acid] (ClAc-E[Pip][2Nal]H-NH2) the value was 4.02 µM. Next, `NC(=O)CC[C@H](NC(=O)[C@H](Cc1csc2ccccc12)NC(=O)[C@@H]1CCCCN1C(=O)[C@H](CCC(=O)O)NC(=O)CCl)C(N)=O` [Compound 2b-8, (S)-5-((S)-2-(((S)-3-(Benzo[6]thiophen-3-yl)-1-(((S)-1,5-diamino-1,5-dioxopentan-2-yl)amino)-1-oxopropan-2-yl)carbamoyl)piperidin-1-yl)-4-(2-chloroacetamido)-5-oxopentanoic acid] (ClAc-E[Pip][Bta]Q-NH2): 2.83 µM; `N=C(N)NCCC[C@H](NC(=O)[C@H](Cc1ccc(-c2ccccc2)cc1)NC(=O)[C@@H]1CCCCN1C(=O)[C@H](CCC(=O)O)NC(=O)CCl)C(N)=O` [Compound 2b-9, (S)-5-((S)-2-(((S)-3-([1,1′-Biphenyl]-4-yl)-1-(((S)-1-amino-5-guanidino-1-oxopentan-2-yl)amino)-1-oxopropan-2-yl)carbamoyl)piperidin-1-yl)-4-(2-chloroacetamido)-5-oxopentanoic acid] (ClAc-E[Pip][Bip]R-NH2): 0.19 µM. Next, `N=C(N)NCCC[C@H](NC(=O)[C@@H](NC(=O)[C@@H]1CCCCN1C(=O)[C@H](CCC(=O)O)NC(=O)CCl)C(c1ccccc1)c1ccccc1)C(N)=O` [Compound 2b-10, (S)-5-((S)-2-(((S)-1-(((S)-1-Amino-5-guanidino-1-oxopentan-2-yl)amino)-1-oxo-3,3-diphenylpropan-2-yl)carbamoyl)piperidin-1-yl)-4-(2-chloroacetamido)-5-oxopentanoic acid] (ClAc-E[Pip][Dip]R-NH2): 0.85 µM; `N=C(N)NCCC[C@H](NC(=O)[C@H](Cc1c2ccccc2cc2ccccc12)NC(=O)[C@@H]1CCCCN1C(=O)[C@H](CCC(=O)O)NC(=O)CCl)C(N)=O` [Compound 2b-11, (S)-5-((S)-2-(((S)-1-(((S)-1-Amino-5-guanidino-1-oxopentan-2-yl)amino)-3-(anthracen-9-yl)-1-oxopropan-2-yl)carbamoyl)piperidin-1-yl)-4-(2-chloroacetamido)-5-oxopentanoic acid] (ClAc-E[Pip][Ala(9-anthryl)]R-NH2): 0.609 µM.
